Assay results published in ChEMBL document CHEMBL4507292 (2021).

Legend:
[1] = biological target: Serine/threonine-protein kinase TAO1 (Homo sapiens) (UniProt Q7L7X3); conditions: Compound concentration 1000.0 nM
[2] = biological target: Mitogen-activated protein kinase kinase kinase kinase 4 (Homo sapiens) (UniProt O95819); conditions: Compound concentration 1000.0 nM
[3] = biological target: BDNF/NT-3 growth factors receptor (Homo sapiens) (UniProt Q16620); conditions: Compound concentration 1000.0 nM
[4] = biological target: Mitogen-activated protein kinase kinase kinase 9 (Homo sapiens) (UniProt P80192); conditions: Compound concentration 1000.0 nM
[5] = biological target: Testis-specific serine/threonine-protein kinase 1 (Homo sapiens) (UniProt Q9BXA7); conditions: Compound concentration 1000.0 nM
[6] = system: Mast/stem cell growth factor receptor Kit (Homo sapiens), P10721 [V559D,V654A]; conditions: Compound concentration 1000.0 nM
[7] = biological target: MAP kinase-interacting serine/threonine-protein kinase 2 (Homo sapiens) (UniProt Q9HBH9); conditions: Compound concentration 1000.0 nM
[8] = biological target: Tyrosine-protein kinase BTK (Homo sapiens) (UniProt Q06187); conditions: Compound concentration 1000.0 nM
[9] = biological target: Atypical kinase COQ8B, mitochondrial (Homo sapiens) (UniProt Q96D53); conditions: Compound concentration 1000.0 nM
[10] = biological target: Casein kinase II subunit alpha' (Homo sapiens) (UniProt P19784); conditions: Compound concentration 1000.0 nM
[11] = biological target: Calcium/calmodulin-dependent protein kinase type II subunit alpha (Homo sapiens) (UniProt Q9UQM7); conditions: Compound concentration 1000.0 nM
[12] = biological target: Serine/threonine-protein kinase 17A (Homo sapiens) (UniProt Q9UEE5); conditions: Compound concentration 1000.0 nM
[13] = biological target: NUAK family SNF1-like kinase 1 (Homo sapiens) (UniProt O60285); conditions: Compound concentration 1000.0 nM
[14] = system: Tyrosine-protein kinase ABL1 (Homo sapiens), P00519 [F317L]; conditions: Compound concentration 1000.0 nM
[15] = biological target: Serine/threonine-protein kinase SBK1 (Homo sapiens) (UniProt Q52WX2); conditions: Compound concentration 1000.0 nM
[16] = biological target: Muscarinic acetylcholine receptor M3 (Homo sapiens) (UniProt P20309); conditions: Compound concentration 10.0 uM
[17] = biological target: Serine/threonine-protein kinase D1 (Homo sapiens) (UniProt Q15139); conditions: Compound concentration 1000.0 nM
[18] = biological target: Kappa-type opioid receptor (Homo sapiens, UniProt P41145); conditions: Compound concentration 10.0 uM
[19] = biological target: Serine/threonine-protein kinase ICK (Homo sapiens) (UniProt Q9UPZ9); conditions: Compound concentration 1000.0 nM
[20] = system: Phosphatidylinositol 4,5-bisphosphate 3-kinase catalytic subunit alpha isoform (Homo sapiens), P42336 [E542K]; conditions: Compound concentration 1000.0 nM
[21] = biological target: Myosin-IIIb (Homo sapiens) (UniProt Q8WXR4); conditions: Compound concentration 1000.0 nM
[22] = biological target: AP2-associated protein kinase 1 (Homo sapiens) (UniProt Q2M2I8); conditions: Compound concentration 1000.0 nM
D(1A) dopamine receptor = D(1A) dopamine receptor (Homo sapiens, UniProt P21728); conditions: Compound concentration 10.0 uM
[23] = biological target: Calcium/calmodulin-dependent protein kinase type II subunit beta (Homo sapiens) (UniProt Q13554); conditions: Compound concentration 1000.0 nM
[24] = biological target: Serine/threonine-protein kinase ULK1 (Homo sapiens) (UniProt O75385); conditions: Compound concentration 1000.0 nM
[25] = biological target: Serine/threonine-protein kinase/endoribonuclease IRE1 (Homo sapiens) (UniProt O75460); conditions: Compound concentration 1000.0 nM
[26] = biological target: Phosphatidylinositol 3-kinase C2 domain-containing subunit gamma (Homo sapiens) (UniProt O75747); conditions: Compound concentration 1000.0 nM
[27] = biological target: Serine/threonine-protein kinase 4 (Homo sapiens) (UniProt Q13043); conditions: Compound concentration 1000.0 nM
[28] = biological target: T1, D(4) dopamine receptor (Homo sapiens) (UniProt P21917); conditions: Compound concentration 10.0 uM
T1 sequence (whole entry): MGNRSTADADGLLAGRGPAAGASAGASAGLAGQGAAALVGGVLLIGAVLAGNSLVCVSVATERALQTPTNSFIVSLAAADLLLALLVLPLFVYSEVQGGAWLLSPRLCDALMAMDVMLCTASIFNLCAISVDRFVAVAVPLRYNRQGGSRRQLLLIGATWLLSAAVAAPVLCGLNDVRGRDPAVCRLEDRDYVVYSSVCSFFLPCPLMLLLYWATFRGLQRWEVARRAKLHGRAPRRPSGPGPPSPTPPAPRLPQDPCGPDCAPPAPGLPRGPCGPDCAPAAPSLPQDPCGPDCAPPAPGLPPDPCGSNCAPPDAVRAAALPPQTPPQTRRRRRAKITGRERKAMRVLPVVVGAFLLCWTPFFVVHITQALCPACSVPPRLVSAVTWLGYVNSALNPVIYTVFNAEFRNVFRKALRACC

[29] = biological target: Aurora kinase C (Homo sapiens) (UniProt Q9UQB9); conditions: Compound concentration 1000.0 nM
[30] = biological target: T2, 5-hydroxytryptamine receptor 1A (Homo sapiens) (UniProt P08908)
T2 sequence (whole entry): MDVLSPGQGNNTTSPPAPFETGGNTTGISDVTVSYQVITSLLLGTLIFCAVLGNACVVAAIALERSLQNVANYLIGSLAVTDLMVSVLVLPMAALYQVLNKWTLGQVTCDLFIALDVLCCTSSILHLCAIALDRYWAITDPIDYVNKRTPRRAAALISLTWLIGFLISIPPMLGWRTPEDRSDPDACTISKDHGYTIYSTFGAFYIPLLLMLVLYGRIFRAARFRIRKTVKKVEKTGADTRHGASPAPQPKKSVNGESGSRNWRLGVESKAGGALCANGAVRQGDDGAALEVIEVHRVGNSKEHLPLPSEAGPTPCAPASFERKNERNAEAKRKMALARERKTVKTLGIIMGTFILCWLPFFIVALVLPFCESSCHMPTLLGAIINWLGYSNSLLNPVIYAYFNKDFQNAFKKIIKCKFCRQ

[31] = biological target: Somatostatin receptor type 2 (Homo sapiens) (UniProt P30874); test: Somatostatin sst2 Eurofins-Panlabs radioligand binding assay; set-up: ligand concentration 0.1 nM; conditions: Compound concentration 10.0 uM

Phosphatidylinositol 3-kinase C2 domain-containing subunit gamma (Homo sapiens), sequence (O75747 whole entry, the tested form may be a part): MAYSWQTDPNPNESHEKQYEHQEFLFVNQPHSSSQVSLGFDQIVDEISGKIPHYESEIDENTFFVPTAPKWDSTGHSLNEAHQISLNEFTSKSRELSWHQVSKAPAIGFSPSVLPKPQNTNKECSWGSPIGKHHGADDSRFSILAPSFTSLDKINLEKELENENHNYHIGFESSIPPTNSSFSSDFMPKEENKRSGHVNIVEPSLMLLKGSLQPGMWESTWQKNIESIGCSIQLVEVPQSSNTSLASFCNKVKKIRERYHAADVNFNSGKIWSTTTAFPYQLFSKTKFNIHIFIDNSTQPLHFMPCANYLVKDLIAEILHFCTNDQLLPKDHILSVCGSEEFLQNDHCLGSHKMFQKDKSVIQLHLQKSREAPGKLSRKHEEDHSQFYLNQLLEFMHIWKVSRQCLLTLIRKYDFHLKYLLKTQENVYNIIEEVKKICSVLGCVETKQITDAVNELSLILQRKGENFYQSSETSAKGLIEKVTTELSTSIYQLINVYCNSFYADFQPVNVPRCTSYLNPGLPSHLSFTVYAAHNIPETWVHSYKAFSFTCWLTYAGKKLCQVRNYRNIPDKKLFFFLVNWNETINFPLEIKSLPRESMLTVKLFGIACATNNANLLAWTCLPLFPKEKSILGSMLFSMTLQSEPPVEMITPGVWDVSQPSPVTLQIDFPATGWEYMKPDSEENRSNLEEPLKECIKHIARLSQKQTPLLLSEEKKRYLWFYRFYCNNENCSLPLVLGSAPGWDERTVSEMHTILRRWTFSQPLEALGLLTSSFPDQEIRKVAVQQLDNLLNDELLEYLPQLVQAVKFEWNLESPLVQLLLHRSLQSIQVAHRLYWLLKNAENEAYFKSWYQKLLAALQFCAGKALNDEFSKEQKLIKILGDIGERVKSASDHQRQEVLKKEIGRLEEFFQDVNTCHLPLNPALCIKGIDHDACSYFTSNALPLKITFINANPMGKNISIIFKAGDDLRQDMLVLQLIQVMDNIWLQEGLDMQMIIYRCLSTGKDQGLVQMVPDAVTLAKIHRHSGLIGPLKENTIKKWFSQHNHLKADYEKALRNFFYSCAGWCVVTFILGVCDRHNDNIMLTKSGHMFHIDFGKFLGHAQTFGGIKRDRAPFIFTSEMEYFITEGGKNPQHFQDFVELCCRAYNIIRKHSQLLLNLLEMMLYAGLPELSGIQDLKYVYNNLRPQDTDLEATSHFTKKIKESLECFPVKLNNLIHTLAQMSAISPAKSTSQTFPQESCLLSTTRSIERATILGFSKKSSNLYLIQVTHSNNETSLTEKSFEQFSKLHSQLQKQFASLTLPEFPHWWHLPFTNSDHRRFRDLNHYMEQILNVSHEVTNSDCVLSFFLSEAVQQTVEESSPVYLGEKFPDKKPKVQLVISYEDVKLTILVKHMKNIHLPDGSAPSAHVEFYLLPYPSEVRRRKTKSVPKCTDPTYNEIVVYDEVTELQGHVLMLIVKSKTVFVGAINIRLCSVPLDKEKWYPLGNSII
Kappa-type opioid receptor, sequence (P41145 whole entry): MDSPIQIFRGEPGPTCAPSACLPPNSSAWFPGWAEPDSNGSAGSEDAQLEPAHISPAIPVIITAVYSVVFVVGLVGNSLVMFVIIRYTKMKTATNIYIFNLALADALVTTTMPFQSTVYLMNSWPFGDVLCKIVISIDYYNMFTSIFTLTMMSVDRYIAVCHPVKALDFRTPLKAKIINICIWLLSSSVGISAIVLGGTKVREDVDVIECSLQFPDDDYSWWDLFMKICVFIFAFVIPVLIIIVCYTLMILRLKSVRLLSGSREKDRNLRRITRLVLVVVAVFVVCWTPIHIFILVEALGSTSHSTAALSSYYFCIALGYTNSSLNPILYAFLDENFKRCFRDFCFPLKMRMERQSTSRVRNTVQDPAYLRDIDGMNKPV
Muscarinic acetylcholine receptor M3 (Homo sapiens), sequence (P20309 whole entry, looked up): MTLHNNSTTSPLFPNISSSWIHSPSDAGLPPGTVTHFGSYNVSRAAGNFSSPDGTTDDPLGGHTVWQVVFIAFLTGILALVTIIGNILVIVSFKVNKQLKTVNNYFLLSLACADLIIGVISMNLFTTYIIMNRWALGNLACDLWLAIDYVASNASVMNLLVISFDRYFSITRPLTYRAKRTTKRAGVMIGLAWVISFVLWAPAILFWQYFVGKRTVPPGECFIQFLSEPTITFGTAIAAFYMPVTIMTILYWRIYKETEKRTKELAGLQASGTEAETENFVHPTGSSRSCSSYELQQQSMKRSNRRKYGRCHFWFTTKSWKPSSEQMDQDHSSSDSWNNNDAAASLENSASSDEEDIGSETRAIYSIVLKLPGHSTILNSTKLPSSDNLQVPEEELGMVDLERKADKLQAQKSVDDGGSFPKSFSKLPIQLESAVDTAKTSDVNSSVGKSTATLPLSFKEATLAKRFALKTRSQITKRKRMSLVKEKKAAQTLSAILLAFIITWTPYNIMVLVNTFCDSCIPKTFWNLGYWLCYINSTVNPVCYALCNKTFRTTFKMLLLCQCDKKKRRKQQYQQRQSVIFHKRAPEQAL
AP2-associated protein kinase 1 (Homo sapiens), sequence (Q2M2I8 whole entry, looked up): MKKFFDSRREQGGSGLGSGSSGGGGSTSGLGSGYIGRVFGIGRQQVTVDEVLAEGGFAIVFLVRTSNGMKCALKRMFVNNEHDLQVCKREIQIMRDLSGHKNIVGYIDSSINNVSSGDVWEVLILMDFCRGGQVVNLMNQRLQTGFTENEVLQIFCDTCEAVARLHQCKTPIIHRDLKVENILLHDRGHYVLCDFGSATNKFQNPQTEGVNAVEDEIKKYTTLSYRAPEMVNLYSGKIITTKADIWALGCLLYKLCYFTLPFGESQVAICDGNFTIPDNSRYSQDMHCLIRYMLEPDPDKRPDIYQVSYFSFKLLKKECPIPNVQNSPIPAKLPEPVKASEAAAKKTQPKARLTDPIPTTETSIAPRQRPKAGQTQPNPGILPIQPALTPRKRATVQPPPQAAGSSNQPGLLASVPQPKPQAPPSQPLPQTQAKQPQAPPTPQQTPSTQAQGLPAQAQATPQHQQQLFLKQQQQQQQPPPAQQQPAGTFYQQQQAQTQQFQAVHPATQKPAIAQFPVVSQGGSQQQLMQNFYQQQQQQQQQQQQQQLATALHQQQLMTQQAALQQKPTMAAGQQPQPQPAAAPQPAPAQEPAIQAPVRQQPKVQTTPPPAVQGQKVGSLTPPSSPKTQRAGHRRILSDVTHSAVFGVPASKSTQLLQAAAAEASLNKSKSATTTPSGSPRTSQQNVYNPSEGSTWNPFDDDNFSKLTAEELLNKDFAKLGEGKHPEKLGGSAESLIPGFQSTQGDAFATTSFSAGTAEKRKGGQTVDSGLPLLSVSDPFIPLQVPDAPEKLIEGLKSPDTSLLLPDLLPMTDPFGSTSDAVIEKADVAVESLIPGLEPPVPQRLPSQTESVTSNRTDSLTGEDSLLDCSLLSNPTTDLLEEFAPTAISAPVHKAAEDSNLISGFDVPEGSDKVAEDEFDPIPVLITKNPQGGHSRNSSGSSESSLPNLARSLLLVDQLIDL
Testis-specific serine/threonine-protein kinase 1 (Homo sapiens), sequence (Q9BXA7 whole entry): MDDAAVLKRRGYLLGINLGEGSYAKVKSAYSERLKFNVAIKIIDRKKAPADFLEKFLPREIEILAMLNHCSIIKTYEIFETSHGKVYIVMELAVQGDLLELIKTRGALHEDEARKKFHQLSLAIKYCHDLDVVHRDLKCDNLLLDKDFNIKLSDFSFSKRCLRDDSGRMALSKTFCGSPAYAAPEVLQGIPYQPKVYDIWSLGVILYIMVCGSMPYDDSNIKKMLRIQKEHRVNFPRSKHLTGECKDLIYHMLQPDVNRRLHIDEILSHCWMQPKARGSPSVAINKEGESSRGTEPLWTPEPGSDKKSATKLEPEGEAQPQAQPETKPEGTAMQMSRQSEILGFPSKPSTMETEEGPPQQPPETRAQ
Serine/threonine-protein kinase 17A (Homo sapiens), sequence (Q9UEE5 whole entry): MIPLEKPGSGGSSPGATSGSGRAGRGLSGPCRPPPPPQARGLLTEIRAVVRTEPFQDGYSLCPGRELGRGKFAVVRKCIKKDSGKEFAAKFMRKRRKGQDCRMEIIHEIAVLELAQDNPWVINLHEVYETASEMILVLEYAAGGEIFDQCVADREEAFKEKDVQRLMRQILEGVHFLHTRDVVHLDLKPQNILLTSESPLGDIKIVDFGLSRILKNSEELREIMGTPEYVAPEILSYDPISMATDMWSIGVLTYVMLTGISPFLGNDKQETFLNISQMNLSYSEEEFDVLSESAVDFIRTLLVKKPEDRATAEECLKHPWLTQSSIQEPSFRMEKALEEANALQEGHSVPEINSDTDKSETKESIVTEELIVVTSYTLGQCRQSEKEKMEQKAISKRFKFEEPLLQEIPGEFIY
Aurora kinase C (Homo sapiens), sequence (Q9UQB9 whole entry): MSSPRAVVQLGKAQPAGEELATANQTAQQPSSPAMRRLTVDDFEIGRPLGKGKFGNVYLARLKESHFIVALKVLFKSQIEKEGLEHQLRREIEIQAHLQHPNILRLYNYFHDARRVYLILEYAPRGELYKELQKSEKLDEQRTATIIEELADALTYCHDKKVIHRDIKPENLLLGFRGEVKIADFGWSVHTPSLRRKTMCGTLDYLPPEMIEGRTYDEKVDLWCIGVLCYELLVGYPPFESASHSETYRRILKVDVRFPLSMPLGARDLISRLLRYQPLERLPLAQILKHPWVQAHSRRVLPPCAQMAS
MAP kinase-interacting serine/threonine-protein kinase 2 (Homo sapiens), sequence (Q9HBH9 whole entry, looked up): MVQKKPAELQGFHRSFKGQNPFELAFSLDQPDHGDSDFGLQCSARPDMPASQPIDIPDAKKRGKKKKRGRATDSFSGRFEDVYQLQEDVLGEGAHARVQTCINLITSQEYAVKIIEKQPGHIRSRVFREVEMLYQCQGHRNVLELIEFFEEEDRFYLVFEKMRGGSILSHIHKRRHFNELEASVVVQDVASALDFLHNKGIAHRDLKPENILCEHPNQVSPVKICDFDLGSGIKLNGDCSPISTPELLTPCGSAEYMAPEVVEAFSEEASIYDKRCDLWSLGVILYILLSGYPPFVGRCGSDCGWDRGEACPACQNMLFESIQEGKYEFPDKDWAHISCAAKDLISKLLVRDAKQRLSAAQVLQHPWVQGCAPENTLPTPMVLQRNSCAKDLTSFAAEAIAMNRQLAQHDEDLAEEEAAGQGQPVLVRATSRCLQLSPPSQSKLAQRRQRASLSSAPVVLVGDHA

Row | SMILES | residual activity [1] | residual activity [2] | residual activity [3] | residual activity [4] | residual activity [5] | residual activity [6] | residual activity [7] | residual activity [8] | residual activity [9] | residual activity [10] | residual activity [11] | residual activity [12] | residual activity [13] | residual activity [14] | residual activity [15] | inhibition [16] | residual activity [17] | inhibition [18] | residual activity [19] | residual activity [20] | also measured
1 | Cc1c(C(=O)O)cc(-c2ccc(C3CCNCC3)cc2)c2ccc(-c3ccc(C(F)(F)F)cc3)cc12 [PPTN-NC] | 100% | 76% | 100% | 92% | 100% | 100% | 100% | 94% | 100% | 100% | 100% | 99% | 100% | 100% | 100% | 0.06% | 100% | 27.9% | 100% | 99% | residual activity [21]: 75%; residual activity [22]: 100%; inhibition (D(1A) dopamine receptor): 61.4%; residual activity [23]: 100%; residual activity [24]: 100%; residual activity [25]: 100%; residual activity [26]: 100%; residual activity [27]: 95%; inhibition [28]: 8.42%; residual activity [29]: 92%
2 | O=C(O)c1cc(-c2ccc(C3CCNCC3)cc2)c2ccc(-c3ccc(C(F)(F)F)cc3)cc2c1 [PPTN] | 100% | 87% | 100% | 100% | 100% | 100% | 100% | 96% | 100% | 100% | 100% | 100% | 100% | 100% | 100% | 9.47% | 100% | 41.7% | 100% | 100% | inhibition ([30]; Compound concentration 0.01 uM): 0%; inhibition ([30]; Compound concentration 0.1 uM): -2%; inhibition ([30]; Compound concentration 1.0 uM): 4%; inhibition ([30]; Compound concentration 10.0 uM): 64%; inhibition [31]: 29%; residual activity [21]: 69%; residual activity [22]: 100%; inhibition (D(1A) dopamine receptor): 71.4%; residual activity [23]: 100%; residual activity [24]: 100%; residual activity [25]: 100%; residual activity [26]: 100%; residual activity [27]: 98%; inhibition [28]: 10.4%; residual activity [29]: 95%
